The subject of the assay is antibody derived from Immunogen of Example 9. The assay is described as follows: Competitive immunoassay (ELISA), IC50 derivation and cross-reactivity. It counts as binding, sheep. The following applies: for % CROSS-REACTIVITY: compared to 100% for AKB48; for % CROSS-REACTIVITY / IC50: Tracer 1 of Example 10; for IC50: Table 2, generated as per AKB48 and Table 1; for binding to the antibodies of the invention: "does not bind" = cross-reactivity of less than 2% vs 100% for AKB48 under Example 12 conditions. On the procedure:
All cross-reactivity are measured herein under the experimental conditions of Example 12 and compared to 100% for AKB48.
IgG is extracted from the antisera and immobilised on a 96 well ELISA plate (coated for 2 hours at +37° C. at 10 ug/ml in a Phosphate Buffered Saline pH7.2). Unbound material is removed by washing with Tris Buffered Saline (TBS) containing tween ([…]) over 10 minutes. Standard AKB48 is added at the concentrations quoted in Table 1, followed by detection agent 1 (FIG. 2) at 1/140 k in a dilution buffer. After incubation (60 mins) at +15 to +25° C. to allow a competition reaction to take place, the microtitre plate is washed with TBS containing Tween™ to remove excess reagents. The enzyme substrate […] (125 μl) is added (Kem-en-Tec Cat. No. 4800). After a 20 minute incubation period to allow maximum colour development, the colour reaction is stopped by the addition of sulphuric acid (0.2M, 120 μl). This produces a colour change from blue to yellow, and the absorbances are read at 450 nm. A standard curve is then constructed and the IC50 calculated as the AKB48 concentration which produces 50% inhibition of maximal signal. This process was repeated for synthetic cannabinoid members as stated in Table 2 to assess cross-reactivity.
The cross-reactivity (CR) was calculated using the equation below. All calculations were based upon binding and displacement at the 50% of maximum OD (optical density) binding point. The maximum OD is the signal generated using tracer alone and 50% displacement (inhibition) corresponds to the IC50. […]
The extent of antibody binding to synthetic cannabinoids of various families was assessed (Table 2). For the cross-reactants with IC50 values, standard curves were derived for each analyte (as per AKB48 and Table 1). […] In all cases, the cross-reactivity set out in Table 2 was measured using an antibody derived from the immunogen of Example 9 and Tracer 1 of Example 10.
Background: In an ELISA, binding on a coated surface is turned into a signal by an enzyme label.

Where [1] appears, read: single cross-reactant at 300 ng/ml.
[2] abbreviates: standard curve derived for each analyte.

Results on 49 compounds are retold here after patent publication US10591497B2, “Immunoassay for synthetic cannabinoids of the adamantyl indazole/indole-3-carboxamide family” (Randox Laboratories Limited, priority 2014, dated 2020).

≈ marks a conversion by molar mass, not a printed value. Bounds are passed on as bounds.

Regarding `O=C(O)c1cn(CC2CCCCC2)c2ccccc12` [3-Carboxyindole metabolite of BB-22], under setting [1], the “% CROSS-REACTIVITY” value is <1.00%.
The compound `CCCCCn1nc(C(=O)NC23CC4CC(CC(O)(C4)C2)C3)c2ccccc21` [3-OH-AKB48, (3-hydroxy-1-adamantyl) 1-pentylindazole-3-carboxamide] displayed an IC50 of 0.18 ng/mL (≈ 0.000472 µM). Moreover, the “% CROSS-REACTIVITY” value under setting [2] was found to be 1163.53%.
As for `CCCCCn1cc(C(=O)NC23CC4CC(CC(O)(C4)C2)C3)c2ccccc21` [3-OH-SDB001], the IC50 stood at 4.40 ng/mL (≈ 0.0116 µM). In addition, under setting [2], the “% CROSS-REACTIVITY” value is listed as 47.30%.
As to `O=C(O)c1cn(CCCCCF)c2ccccc12` [3-carboxyindole of 5-fluoro PB-22], the “% CROSS-REACTIVITY” value under setting [1] is on record as <1.00%.
Consider `O=C(Oc1cccc2cccnc12)c1cn(CCCCCF)c2ccccc12` [5-fluoro PB-22], for which the “% CROSS-REACTIVITY” value under setting [1] is listed as <1.00%.
With `CC1(C)C(C(=O)c2cn(CC3CCOCC3)c3ccccc23)C1(C)C` [A-834735], the “% CROSS-REACTIVITY” value under setting [1] is on record as <1.00%.
Same read-out and setting: in the case of `CC1(C)C(C(=O)c2cn(CCN3CCOCC3)c3ccccc23)C1(C)C` [A-7969260] it was <1.00%.
Consider `O=C(O)CCCCn1cc(C(=O)C23CC4CC(CC(C4)C2)C3)c2ccccc21` [AB001 N-Pentanoic Acid], for which the “binding to the antibodies of the invention” value (from here on “binding to the antibodies”) was “do not bind”. Moreover, the “% CROSS-REACTIVITY” value under setting [1] was <1.00%.
In the case of `O=C(c1cn(CCCCCO)c2ccccc12)C12CC3CC(CC(C3)C1)C2` [AB001 N-Pentanol], the “binding to the antibodies” value was “do not bind”. Moreover, under setting [1], the “% CROSS-REACTIVITY” value is given as <1.00%.
As to `CCCCCn1nc(C(=O)N[C@H](C(N)=O)C(C)C)c2ccccc21` [AB Pinaca], the “binding to the antibodies” value is “does not bind”. Further, under setting [1], the “% CROSS-REACTIVITY” value is recorded as <1.00%.
With `O=C(NC12CC3CC(CC(C3)C1)C2)c1nn(CCCCCF)c2ccccc12` [AKB48 N-(5-fluoropentyl)], the IC50 is 2.10 ng/mL (≈ 0.00548 µM). In addition, the “% CROSS-REACTIVITY” value under setting [2] is 98.90%.
Consider `O=C(O)CCCCn1nc(C(=O)NC23CC4CC(CC(C4)C2)C3)c2ccccc21` [AKB48 N-Pentanoic acid (LK1461)], for which the “binding to the antibodies” value is reported as “do not bind”. Further, the “% CROSS-REACTIVITY” value under setting [1] is listed as <1.00%.
For the compound `CCCCCn1cc(C(=O)NC23CC4CC(CC(C4)C2)C3)c2ccccc21` [AKB48, N-(1-adamantyl)-1-pentyl-1H-indole-3-carboxamide], the IC50 was 2.08 ng/mL (≈ 0.00571 µM). Besides, where the note is “AKB48 concentration 0.25 ng/ml”, the “% B/B0” value worked out at 88%. Under “AKB48 concentration 0.74 ng/ml”, the “% B/B0” value was determined as 69%. The “% B/B0” value (AKB48 concentration 2.22 ng/ml) amounted to 50%. Moreover, under “AKB48 concentration 6.67 ng/ml”, the “% B/B0” value is on record as 26%. Under “AKB48 concentration 20.00 ng/ml”, the “% B/B0” value was 12%. Further, the “% CROSS-REACTIVITY” value under setting [2] was determined as 100.00%.
As to `N#CCCCCn1cc(C(=O)c2cccc3ccccc23)c2ccccc21` [AM2232], the “% CROSS-REACTIVITY” value under setting [1] is reported as <1.00%.
Take `O=C(c1ccccc1I)c1cn(CCCCCF)c2ccccc12` [AM-694]: the “binding to the antibodies” value is “does not bind”. The “% CROSS-REACTIVITY” value under setting [1] is <1.00%.
`CN1CCCCC1Cn1cc(C(=O)C23CC4CC(CC(C4)C2)C3)c2ccccc21` (centres unmarked) [AM-1248]: the “binding to the antibodies” value is “does not bind”. The “% CROSS-REACTIVITY” value under setting [1] is on record as <1.00%.
For `O=C(c1cccc2ccccc12)c1cn(CCCCCF)c2cc(O)ccc12` [AM-2201 6-Hydroxyindole], under setting [1], the “% CROSS-REACTIVITY” value is <1.00%.
With `O=C(c1cccc2ccccc12)c1cn(CCCC(O)CF)c2ccccc12` (centres unmarked) [AM-2201 N-(4-Hydroxypentyl)], the “% CROSS-REACTIVITY” value under setting [1] is given as <1.00%.
Take `O=C(c1cccc2ccccc12)c1cn(CCCCCF)c2ccccc12` [AM-2201]: the “% CROSS-REACTIVITY” value under setting [1] is <1.00%.
Still for that read-out and setting: in the case of `O=C(Oc1cccc2cccnc12)c1cn(CC2CCCCC2)c2ccccc12` [BB-22] it was <1.00%.
Same read-out and setting: in the case of `CCCCCn1c(C)c(C(=O)c2cccc3ccccc23)c2ccccc21` [JWH-007] it was <1.00%.
Consider `CCCn1c(C)c(C(=O)c2cccc3ccccc23)c2ccccc21` [JWH-015], for which the “% CROSS-REACTIVITY” value under setting [1] was <1.00%.
The same measure, in the same setting: in the case of `CCCCCn1cc(C(=O)c2cccc3ccccc23)c2c(O)cccc21` [JWH-018 4-Hydroxyindole] it was <1.00%; in that of `CCCCCn1cc(C(=O)c2cccc3ccccc23)c2cc(O)ccc21` [JWH-018 5-Hydroxyindole], <1.00%; in that of `CCCCCn1cc(C(=O)c2cccc3ccccc23)c2ccc(O)cc21` [JWH-018 6-Hydroxyindole], <1.00%.
`O=C(c1cccc2ccccc12)c1cn(CCCCCO)c2ccccc12` [JWH-018 N-(5-Hydroxypentyl)]: under setting [1], the “% CROSS-REACTIVITY” value is on record as <1.00%.
With `O=C(O)CCCCn1cc(C(=O)c2cccc3ccccc23)c2ccccc21` [JWH-018 N-Pentanoic acid], the “% CROSS-REACTIVITY” value under setting [1] was <1.00%.
Take `CCCCCn1cc(C(=O)c2cccc3ccccc23)c2ccccc21` [JWH-018]: the “binding to the antibodies” value was “do not bind”. For the same compound, the “% CROSS-REACTIVITY” value under setting [1] is given as <1.00%.
Take `CCCCCCn1cc(C(=O)c2cccc3ccccc23)c2ccccc21` [JWH-019]: under setting [1], the “% CROSS-REACTIVITY” value was <1.00%.
Still for that read-out and setting: in the case of `C=CCCCn1cc(C(=O)c2cccc3ccccc23)c2ccccc21` [JWH-022] it was <1.00%; in that of `CCCCn1cc(C(=O)c2cccc3ccccc23)c2c(O)cccc21` [JWH-073 4-Hydroxyindole], <1.00%; in that of `CCCCn1cc(C(=O)c2cccc3ccccc23)c2cc(O)ccc21` [JWH-073 5-Hydroxyindole], <1.00%.
For `CCCCn1cc(C(=O)c2cccc3ccccc23)c2ccccc21` [JWH-073], the “binding to the antibodies” value is given as “do not bind”. Moreover, the “% CROSS-REACTIVITY” value under setting [1] is given as <1.00%.
On to `CCCCCn1cc(C(=O)c2ccc(OC)c3ccccc23)c2ccccc21` [JWH-081], for which the “% CROSS-REACTIVITY” value under setting [1] is on record as <1.00%.
On to `O=C(c1cccc2ccccc12)c1cn(CCN2CCOCC2)c2ccccc12` [JWH-200], for which the “binding to the antibodies” value is listed as “do not bind”. The “% CROSS-REACTIVITY” value under setting [1] was <1.00%.
On to `CCCCCn1cc(C(=O)Cc2ccccc2Cl)c2ccccc21` [JWH-203], for which the “binding to the antibodies” value is given as “does not bind”. Moreover, under setting [1], the “% CROSS-REACTIVITY” value is on record as <1.00%.
On to `CCCCCn1cc(C(=O)c2ccc(CC)c3ccccc23)c2ccccc21` [JWH-210], for which the “% CROSS-REACTIVITY” value under setting [1] is <1.00%.
Regarding `COc1ccccc1CC(=O)c1cn(CCCCCC(=O)O)c2ccccc12` [JWH-250 N-(5-Carboxypentyl)], the “binding to the antibodies” value is “do not bind”. Besides, under setting [1], the “% CROSS-REACTIVITY” value is reported as <1.00%.
The like results for `COc1ccccc1CC(=O)c1cn(CCCCCO)c2ccccc12` [JWH-250 N-(5-Hydroxypentyl)] were, in that order, “do not bind” and <1.00%.
In the case of `CCCCCn1cc(C(=O)c2ccc(Cl)c3ccccc23)c2ccccc21` [JWH-398], the “% CROSS-REACTIVITY” value under setting [1] is <1.00%.
In the case of `O=C(c1c[nH]c2ccccc12)C12CC3CC(CC(C3)C1)C2` [N-Desalkyl AB001], under setting [1], the “% CROSS-REACTIVITY” value was <1.00%.
As for `CCCCCn1cc(C(=O)O)c2ccccc21` [PB-22 3-Carboxyindole metabolite], the “% CROSS-REACTIVITY” value under setting [1] was <1.00%.
Take `CCCCCn1cc(C(=O)Oc2cccc3cccnc23)c2ccccc21` [PB-22]: the “binding to the antibodies” value was “does not bind”. For the same compound, the “% CROSS-REACTIVITY” value under setting [1] is <1.00%.
Take `CCCCCn1cc(C(=O)c2ccc(OC)cc2)c2ccccc21` [RCS-4]: the “binding to the antibodies” value is “does not bind” and the IC50 amounted to 124.55 ng/mL (≈ 0.387 µM). Besides, the “% CROSS-REACTIVITY” value under setting [2] is recorded as 1.67%.
In the case of `COc1ccccc1CC(=O)c1cn(CCC2CCCCC2)c2ccccc12` [RCS-8], the “binding to the antibodies” value is recorded as “does not bind”. In addition, the “% CROSS-REACTIVITY” value under setting [1] was <1.00%.
`CCCCCn1cc(C(=O)NC23CC4CC(CC(C4)C2)C3)c2ccccc21` [SDB001]: the IC50 is 52.00 ng/mL (≈ 0.143 µM). Further, the “% CROSS-REACTIVITY” value under setting [2] is 4.07%.
In the case of `O=C(O)CCCCn1cc(C(=O)NC23CC4CC(CC(C4)C2)C3)c2ccccc21` [SDB-001 N-Pentanoic acid (LK1404)], the “binding to the antibodies” value is listed as “do not bind”. Also, under setting [1], the “% CROSS-REACTIVITY” value is on record as <1.00%.
In the case of `O=C(NC12CC3CC(CC(C3)C1)C2)c1cn(CCCCCF)c2ccccc12` [STS135], the IC50 is 24.76 ng/mL (≈ 0.0647 µM). Moreover, the “% CROSS-REACTIVITY” value under setting [2] amounted to 8.41%.
For `CC1(C)C(C(=O)c2cn(CCCCC(=O)O)c3ccccc23)C1(C)C` [UR-144 N Pentanoic acid], the “% CROSS-REACTIVITY” value under setting [1] was <1.00%.

What is called IC50 is the point on the concentration scale where inhibition reaches its midpoint.
